PMC10146204, “Inhibition of Acetylcholinesterase by Novel Lupinine Derivatives” (Molecules, 2023)
“Also recorded” adds a separate entry of the source. Read-outs that look alike come from different tables or passages of the source.

Legend:
[1] = molecular target: T1, AChE (Homo sapiens, UniProt P22303); test: biochemical; type: biochemical; details: for Observed class for AChE inhibitory activity: Experimentally determined class, Active or NA
T1 construct: purchased Sigma-Aldrich Chemical Co
Source text: The kit is based on an improved Ellman method, whereby thiocholine produced from AChE activity forms a yellow color with 5,5′-dithiobis(2-nitrobenzoic acid), and the intensity the color (412 nm) is proportional to the enzyme activity.

[2] = molecular target: T1, AChE; details: previously reported AChE inhibitors with a 4-benzyloxyphenyl moiety; ref [36],[37],[38]; read-out: AChE inhibitory activity IC50 of previously reported inhibitors; cited from earlier work
[3] = test system: human THP-1 monocytic cells; test: Cytotoxicity assay (CellTiter-Glo Luminescent Cell Viability Assay); type: cell-based; details: THP-1 cells, concentrations up to 50 μM, 24 h
Procedure: The cytotoxicity of the synthesized compounds was analyzed using a CellTiter-Glo Luminescent Cell Viability Assay Kit (Promega, Madison, WI, USA) according to the manufacturer’s protocol. Human THP-1 monocytic cells obtained from ATCC (Manassas, VA, USA) were cultured in RPMI 1640 medium (Mediatech Inc., Herndon, VA, USA) supplemented with 10% (v/v) FBS, 100 μg/mL streptomycin, and 100 U/mL penicillin. For the cytotoxicity assay, the cells were cultured at a density of 10^4 cells/well with different concentrations of the test compounds added ([…], 12.5, 25, 50 μM; final concentration of DMSO was 1%) for 24 h at 37 °C and 5% CO2. Following treatment, substrate was added to the cells, and the samples were analyzed with a Fluoroscan Ascent FL microplate reader.

[4] = N.A.: no activity was observed at the highest concentration tested (150 µM), 5–7 tested concentrations, read-out: AChE inhibitory activity IC50

T1 sequence (P22303 32-614): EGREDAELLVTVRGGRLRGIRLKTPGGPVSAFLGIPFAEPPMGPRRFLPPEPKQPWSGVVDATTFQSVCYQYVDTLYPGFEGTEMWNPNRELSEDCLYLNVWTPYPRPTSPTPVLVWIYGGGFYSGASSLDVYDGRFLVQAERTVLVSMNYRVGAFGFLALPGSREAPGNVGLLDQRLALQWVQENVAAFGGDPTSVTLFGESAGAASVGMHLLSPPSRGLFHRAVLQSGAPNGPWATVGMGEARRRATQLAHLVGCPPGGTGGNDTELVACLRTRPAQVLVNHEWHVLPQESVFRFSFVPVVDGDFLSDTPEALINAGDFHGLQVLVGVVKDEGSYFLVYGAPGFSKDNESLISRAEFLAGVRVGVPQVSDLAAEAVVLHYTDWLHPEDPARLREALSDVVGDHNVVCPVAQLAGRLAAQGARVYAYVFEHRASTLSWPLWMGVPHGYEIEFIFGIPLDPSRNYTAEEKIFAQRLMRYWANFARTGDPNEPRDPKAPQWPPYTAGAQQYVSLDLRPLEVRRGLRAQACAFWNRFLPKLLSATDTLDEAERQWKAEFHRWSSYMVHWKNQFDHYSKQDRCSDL

Molecule	IC50 [1, 4] [µM]	also measured
Nc1nc(SCc2cn(C[C@@H]3CCCN4CCCC[C@H]34)nn2)n[nH]1 [Compound 5, 3-((1-(((1S,9aR)-Octahydro-1H-quinolizine-1-yl)methyl)-1H-1,2,3-triazole-4-yl)methylthio)-1H-1,2,4-triazole-5-amine]	101 ± 23.9	
COc1cc(-c2cn(C[C@@H]3CCCN4CCCC[C@H]34)nn2)ccc1OCc1ccccc1 [Compound 15, (1S,9aR)-1-((4-(4-(benzyloxy)-3-methoxyphenyl)-1H-1,2,3-triazol-1-yl)methyl)octahydro-2H-quinolizine]	7.2	Mechanism of AChE inhibition (Lineweaver–Burk plot) ([1]; double-reciprocal Lineweaver–Burk plot): mixed type of inhibition; also recorded: mixed-type mechanism
CCc1cc(C(=O)OCc2cn(C[C@@H]3CCCN4CCCC[C@H]34)nn2)c(O)c(C(C)(C)C)c1 [Compound 16]	141 ± 15.3	
COc1cc(/C=C/C(=O)NCCNc2cc(C)nc3ccccc23)ccc1OCc1ccccc1 [Compound C, (E)-3-(4-(benzyloxy)-3-methoxyphenyl)-N-(2-((2-methylquinolin-4-yl)amino)ethyl)acrylamide]		IC50 [2]: 600 nM
COc1ccccc1/C=C/C(=O)OC[C@@H]1CCCN2CCCC[C@H]12 [Compound 43]	89.6 ± 7.7	
COc1cccc(-c2cn(C[C@@H]3CCCN4CCCC[C@H]34)nn2)c1 [Compound 13]	51.8 ± 9.2	
CCOc1cc(C=O)ccc1OCc1cn(C[C@@H]2CCCN3CCCC[C@H]23)nn1 [Compound 7, 3-Ethoxy-4-((1-(((1S,9aR)-octahydro-1H-quinolizine-1-yl)methyl)-1H-1,2,3-triazole-4-yl)methoxy)benzaldehyde]	73.4 ± 16.7	
[(1R,9aR)-octahydro-2H-quinolizin-1-yl]methane [Lupinine]		Cytotoxicity [3]: no cytotoxicity
CC1(C)CC(=O)c2c(C(=O)OC[C@@H]3CCCN4CCCC[C@H]34)coc2C1 [Compound 25]	24.4 ± 3.4	Observed class for AChE inhibitory activity [1]: Active
O=C(Nc1ccc(Cl)c(Cl)c1)OC[C@@H]1CCCN2CCCC[C@H]12 [Compound 41]		IC50 [1]: 99.4 ± 12.3 µM
O=Cc1ccc(OCc2cn(C[C@@H]3CCCN4CCCC[C@H]34)nn2)cc1 [Compound 17]	68.1 ± 2.2	
Cc1cc(C)c(C(=O)OC[C@@H]2CCCN3CCCC[C@H]23)cc1C [Compound 64]	74.1 ± 6.8	
O=C1CC(C(=O)OC[C@@H]2CCCN3CCCC[C@H]23)C2(CCCCC2)O1 (some centres unmarked) [Compound 44]	68.9 ± 5.8	
CCc1nnc(/N=C2\NC(=O)/C(=C\c3ccc(OCc4ccccc4)cc3)S2)s1 [Compound B, (E)-5-((E)-4-(benzyloxy)benzylidene)-2-((5-ethyl-1,3,4-thiadiazol-2-yl)imino)thiazolidin-4-one]		IC50 [2]: 1200 nM
O=C(CCCCl)OC[C@@H]1CCCN2CCCC[C@H]12 [Compound 22]		IC50 [1]: 39.5 ± 7.2 µM; Observed class for AChE inhibitory activity [1]: Active
COc1cccc(/C=C/C(=O)OC[C@@H]2CCCN3CCCC[C@H]23)c1OC [Compound 49]	111 ± 12.5	
Cn1c(/C=N/Nc2ccc(OCc3ccccc3)cc2)nc2ccccc21 [Compound A, (E)-2-((2-(4-(benzyloxy)phenyl)hydrazineylidene)methyl)-1-methylbenzimidazole]		IC50 [2]: 11800 nM
